# Assay results as given in ChEMBL document CHEMBL4673405, “Novel Linker Variants of Antileishmanial/Antitubercular 7-Substituted 2-Nitroimidazooxazines Offer Enhanced Solubility” (ACS Med Chem Lett, 2021).
# Assays:
# Leishmania infantum = test: Antileishmanial activity against Leishmania infantum MHOM/MA(BE)/67 amastigotes infected in mouse peritoneal macrophages incubated for 5 days by Giemsa staining based assay; type: functional, organism-based; conditions: MHOM/MA(BE)/67, Peritoneal macrophage, 120 h
# MRC5 = test: Cytotoxicity against human MRC5 cells assessed as reduction in cell viability measured after 72 hrs by resazurin assay; type: ADME, cell-based; conditions: MRC5, 72 h
# Leishmania donovani [1] = test: (§1) Antileishmanial activity against Leishmania donovani MHOM/ET/67/HU3 amastigotes infected in BALB/c mouse model of visceral leishmaniasis assessed as reduction in parasite burden in liver at 25 mg/kg, po administered once daily for 5 consecutive days starting after 7 days post-infection by microscopic analysis relative to control; type: functional; set-up: scale not given: the % may be the effect or the level left; conditions: time 5 day
# Leishmania donovani [2] = test: as §1, with “12.5” for “25”; type: functional; set-up: scale not given: the % may be the effect or the level left; conditions: time 5 day
# [3] = Aqueous solubility of the compound at pH 7 sonicated for 15 mins by HPLC analysis; conditions: aqueous medium
# [4] = tested on: Mycobacterium tuberculosis; test: Antitubercular activity against Mycobacterium tuberculosis H37Rv assessed as minimum inhibitory concentration required to inhibit 90% of bacterial growth incubated for 7 days under aerobic condition by microplate Alamar blue assay; type: functional; conditions: 168 h, time 7 day
# [5] = tested on: Mycobacterium tuberculosis; test: Antitubercular activity against Mycobacterium tuberculosis H37Rv assessed as minimum inhibitory concentration required to inhibit 90% of bacterial growth incubated for 10 days under anerobic condition followed by incubation under ambient gaseous condition for 7 days by low oxygen recovery assay; type: functional; conditions: 408 h, time 17 day
# Leishmania donovani [6] = test: as §1, with “50” for “25”; type: functional; set-up: scale not given: the % may be the effect or the level left; conditions: time 5 day
# [7] = Solubility of the compound in 0.1 M HCl at pH 1 sonicated for 15 mins by HPLC analysis; type: physicochemical
# Leishmania donovani [8] = test: as §1, with “6.25” for “25”; type: functional; set-up: scale not given: the % may be the effect or the level left; conditions: time 5 day
Compound,IC50 (Leishmania infantum) [nM],IC50 (MRC5) [nM],also measured
O=C(NCc1ccc(OC(F)(F)F)cc1)OCC1CCn2cc([N+](=O)[O-])nc2O1 (configuration not stated),180,≥ 40000,–
CC1(COCC(=O)Nc2ccc(OC(F)(F)F)cc2)CCn2cc([N+](=O)[O-])nc2O1 (configuration not stated),490,≥ 40000,–
C[C@@]1(COC(=O)Nc2ccc(OC(F)(F)F)cc2)CCn2cc([N+](=O)[O-])nc2O1,200,≥ 40000,Activity (Leishmania donovani [1]): 51%; Activity (Leishmania donovani [2]): 31%; solubility at 0.25 h [3]: 7.9 µg/mL
CC1(CNC(=O)Cc2ccc(OC(F)(F)F)cc2)CCn2cc([N+](=O)[O-])nc2O1 (configuration not stated),2000,≥ 40000,–
CC1(CNC(=O)c2ccccc2OC(F)(F)F)CCn2cc([N+](=O)[O-])nc2O1 (configuration not stated),9900,≥ 40000,–
C[C@]1(COC(=O)Nc2ccc(OC(F)(F)F)cc2)CCn2cc([N+](=O)[O-])nc2O1,140,≥ 40000,Activity (Leishmania donovani [1]): 89%; Activity (Leishmania donovani [2]): 40%; MIC90 [4]: 0.085 µM; MIC90 [5]: 1 µM; solubility at 0.25 h [3]: 6.3 µg/mL
CC1(CNc2ccc(F)cc2)CCn2cc([N+](=O)[O-])nc2O1 (configuration not stated),930,≥ 40000,–
O=C(NCc1ccc(OC(F)(F)F)cc1)N(Cc1ccc(OC(F)(F)F)cc1)C(=O)OCC1CCn2cc([N+](=O)[O-])nc2O1 (configuration not stated),790,≥ 40000,–
CC1(COC(=O)Nc2ccccc2OC(F)(F)F)CCn2cc([N+](=O)[O-])nc2O1 (configuration not stated),640,≥ 40000,–
CC1(CNC(=O)COc2ccc(OC(F)(F)F)cc2)CCn2cc([N+](=O)[O-])nc2O1 (configuration not stated),1700,≥ 40000,–
O=[N+]([O-])c1cn2c(n1)OC(CNc1ccc(OC(F)(F)F)cc1)CC2 (configuration not stated),150,≥ 40000,–
CN(CC1(C)CCn2cc([N+](=O)[O-])nc2O1)c1ccc(Cl)cc1 (configuration not stated),310,≥ 40000,–
CC1(CNc2ccc(OC(F)(F)F)cc2)CCn2cc([N+](=O)[O-])nc2O1 (configuration not stated),180,≥ 40000,Activity (Leishmania donovani [6]): >99%; solubility at 0.25 h [7]: 10 µg/mL; Activity (Leishmania donovani [8]): 29%; solubility at 0.25 h [3]: 3 µg/mL
CC1(CNS(=O)(=O)c2cccc(OC(F)(F)F)c2)CCn2cc([N+](=O)[O-])nc2O1 (configuration not stated),2000,≥ 40000,–
O=C(NCC1CCn2cc([N+](=O)[O-])nc2O1)c1ccc(OC(F)(F)F)cc1 (configuration not stated),1500,≥ 40000,–
CC1(COC(=O)NCc2ccc(OC(F)(F)F)cc2)CCn2cc([N+](=O)[O-])nc2O1 (configuration not stated),320,≥ 40000,solubility at 0.25 h [3]: 117 µg/mL
CN(CC1(C)CCn2cc([N+](=O)[O-])nc2O1)c1ccc(OC(F)(F)F)cc1 (configuration not stated),270,≥ 40000,Activity (Leishmania donovani [6]): 58%; solubility at 0.25 h [7]: 4.6 µg/mL; solubility at 0.25 h [3]: 1.5 µg/mL
CC1(COc2ccc(Cl)cc2)CCn2cc([N+](=O)[O-])nc2O1 (configuration not stated),130,≥ 40000,–
